Assay results reported in patent US20050079186A1, “Therapeutic vaccine peptide complex for preventing and treating disorders in mammals” (ORIDAN, Inc., priority 2001, published 2005).

Columns and labels:
[1] = system: IgG2 specific to the peptides A16E and/or A16G; experiment: ELISA detection of IgG2 specific to the peptides A16E and A16G; assay type: in vivo, dog; conditions: vaccinated dogs, ELISA towards the corresponding peptides; for SEROLOGY ELISA IgG2 (positive/negative): 2 months and 12 months after the infectious test; for SEROLOGY ELISA IgG2 (optical density): cut off 0.300 OD
Source text: Detection of immunoglobulins of the isotype IgG2 of dogs, specifically of the peptides A16E and A16G and their derivatives:
This detection is done by the ELISA method according to the microtitration technique of Kweider et al (J. Immunol. 1987, 138, 299) using a bonded anti IgG2. For this method, the peptides are biotinylated prior to coating on microplates.
(§1) The biological analyses consist of: • biochemical analyses: urea, creatine, transaminases • hematological analyses: count, formula • serology leishmaniasis: quantitative anti-Leishmania immunofluorescence, dosage by the ELISA method of IgG2s specific to the peptides A16E and/or A16G • cellular response tests: IDR test (IntraDermoReaction) done with leishmanines and also with A16E and A16G peptides, dosage of NO and lymphoblastic proliferation.

[2] = system: Leishmania; experiment: Leishmaniasis serology: quantitative anti-Leishmania immunofluorescence; assay type: in vivo, dog; parameters: key: +: IF: Immunofluorescence (considered positive if the titer is ≧1/100); − = absence; conditions: healthy dogs vaccinated with peptide(s) 50 μg + muramyl dipeptide 100 μg; analyses 2 months and 12 months after the infectious test
Source text: In parallel to the study of the specific activation of the T lymphocytes the Th1 type by intradermoreaction, dosage of the NO (NO is synthesized by monocytes activated by the cytokines of the T cells of the Th1 type) and lymphocyte proliferation, a serological monitoring by traditional immunofluorescence using strips coated with the promastigotes (serological reference method for canine leishmaniasis) is done.
as §1

[3] = system: Leishmania; experiment: Parasitemy: direct exam of bone marrow smear and cultivation on NNN medium; assay type: in vivo, dog; parameters: key: − = absence; conditions: vaccinated dogs, 2 months and 12 months after the infectious test
Source text: A parasitological exam was done from the sample taken directly from the candidate studied, a dog, for example.
A smear of a puncture of the bone marrow is made on a slide. This smear, fixed once by methanol, is stained with May-Grünwald-Geimsa and observed by an immersion microscope (x 1000).
Samples of the bone marrow are brought under cultivation in the biphase cultivation medium NNN (Novy and Mac Neal, 1904, 4. Infec. Dis., 1:1-30), of which RPMI 1640 supplemented with 20% decomplemented fetal calf serum constitutes the liquid phase. The blind subculturings were done every four to six days. The cultures are regularly observed in a photon microscope (×400) for 20 min.
The parasitemy was quantified as follows:
The infectious examination consists in intravenously injecting 106 treated promastigotes in metacyclic phase in the complement of a healthy dog and 5.106 peritoneal macrophages of a healthy dog, infected in vitro by the amastigotes.
The promastigotes and infected macrophages are diluted in sterile physiological serum for a final volume of 1.5 ml. This mixture is made just prior to injection.
To these analyses must be added the search for Leishmania by direct observation in a microscope and cultivation on NNN medium from bone marrow after the infectious test.

[4] = system: peripheral blood mononuclear cells (PBMC); experiment: Lymphocyte (lymphoblastic) proliferation test; assay type: cell-based, dog; conditions: vaccinated dogs; 2 months after the infectious test
Experimental: Next, a test is done on the lymphocyte proliferation.
The peripheral blood mononuclear cells (PBMC) of dogs are separated on the Ficoll gradient (density 1.078) by centrifugation at 800 g for 20 mn at ambient temperature. These cells are brought under cultivation on a plate having 96 wells at a concentration of 2.10^5 cells per well in the presence of 2 μg per ml of Concanavalin A (Sigma), 5 μg per ml of ES P (excretion—secretion promastigotes) or […] of supernatants of culture harvested in the stationary phase of growth of promastigotes (SP) per well, and in the absence of any additive in a volume of […] of the medium RPMI 1640 containing 5% decomplemented fetal calf serum, 2 mM of L-glutamine, 100 U of penicillin per ml, […] of streptomycin per ml. The optimal antigen and mitogen concentrations have been determined in prior experiments. […] The cells are harvested over a filter and the incorporation of the radioactivity is determined by counting in a scintillating liquid (β-counter). […]
The lymphocytary proliferation has also been estimated by visual readings in a photon microscope (−: negative; +/−: slight proliferation; +: little proliferation less than 5 points per microscopic field; ++: mean proliferation greater than 5 points; +++: strong proliferation).

[5] = system: cell-mediated immunity of the Th1 type; experiment: Intra Dermo Reaction (IDR) test; assay type: in vivo, dog; conditions: vaccinated dogs, 2 months after the infectious test; for IDR A16E: IDR done with peptide A16E; for IDR A16G: IDR done with peptide A16G; for IDR Leishmanines: read 48 h after intradermoinjection
Experimental: Evidence of the involvement of a cell-mediated immunity of the Th1 type:
Leishmanias of the promastigote forms are cultivated in the standard culture media. Parasites are harvested from the end of the exponential phase (6-7 days). The parasitic residue is washed three times by centrifugation (2500 g, […], 4° C.) in a PBS buffer.
After having verified the viability of the parasites using a vital stain (Trypan Blue), a suspension containing […] parasites per ml is inactivated in a PBS buffer containing 0.01% merthiolate (Pinelli et al., 1994, Infect. Immun., 62: 229-235). This constitutes the leishmanias for the intradermoreaction test (IDR).
Dogs are placed in lateral decubitus and a delicate and non-irritating shearing is done on the thoracic zone approximately 5 cm by 10 cm behind the elbow. Four circles 10 mm in diameter are marked using a felt-tip pen.
Into the center of the circles, 0.1 ml of solution is injected in an intradermo-injection. Two circles receive the solution of leishmanias and the 2 other circles receive the saline methiolated solution in the negative control. The reading of the Intra Dermo Reaction (IDR) is done 48 hours later using an allergologic gauge.
The test is considered positive if the mean of the two observed induration diameters is greater than or equal to 5 mm. The observation of an erythema without induration will be considered to be a negative test (Pinelli et al., 1994, Infect. Immun., 62: 229-235; Marty et al., 1994, Trans. Roy. Soc. Trop. Med. Hyg., 88, 658-659).
The IDRs can also be performed with a solution of peptides A16E and A16G or their derivatives and MDP, for example, in proportions of 10 μg of peptides for 20 μg of MDP.

Substance	SEROLOGY ELISA IgG2 (positive/negative) [1]	SEROLOGY ELISA IgG2 (optical density) [1] [OD]	SEROLOGY IF Quantitative [2]	Cultivation on NNN Medium [3]	PARASITEMY Direct Exam [3]	Lymphoblastic Proliferation Test, reading in a photon microscope [4]	IDR A16E [5]	IDR A16G [5]	IDR Leishmanines [5]
A-A-R-S-A-R-S-R-E-G-Y-S-L-T-D-E [A16E, 16 amino acid peptide specific to Leishmania]	+ (ELISA: Cut off = 0.300 OD (optical density))	0.700	−	−	−	+ (little proliferation less than 5 points per microscopic field)	+ (The Intra Dermo Reaction test is considered positive (+) if the induration is ≧5 mm 48 h. after intradermoinjection)	Limit	+ (The Intra Dermo Reaction test is considered positive (+) if the induration is ≧5 mm 48 h. after intradermoinjection)
A-A-S-S-T-P-S-P-G-S-G-C-E-V-D-G [A16G, 16 amino acid peptide specific to Leishmania]	+ (ELISA: Cut off = 0.300 OD (optical density))	0.520	−	−	−	++ (mean proliferation greater than 5 points)	Limit	+ (The Intra Dermo Reaction test is considered positive (+) if the induration is ≧5 mm 48 h. after intradermoinjection)	+ (The Intra Dermo Reaction test is considered positive (+) if the induration is ≧5 mm 48 h. after intradermoinjection)
